These results are taken from ChEMBL document CHEMBL5316361 (J Nat Prod, 2023).

Each structure is given as a SMILES string. Converted amounts (≈) assume the structure as drawn.

Data set [1] deals with MDA-MB-231. Nature of the data set: Cytotoxicity against human MDA-MB-231 cells cultured as 3D cells assessed as cell death at 125 ug/ml measured after 12 hrs by tryphan blue based analysis relative to control. It is filed as functional. As to conditions: dose 125 µg/ml.
Data set [2] deals with MDA-MB-231. Nature of the data set: Cytotoxicity against human MDA-MB-231 cultured as 3D cells assessed as inhibition of cell growth measured after 12 hrs by CellTiter-Glo luciferase detection reagent based assay. The class given is functional. The note with it: MDA-MB-231, 12 h.
Data set [3] deals with MDA-MB-231. Nature of the data set: Cytotoxicity against human MDA-MB-231 cells cultured as 3D cells assessed as cell death measured after 12 hrs relative to control. The class given is functional.
For data set [4], the system named is MDA-MB-231. Nature of the data set: Cytotoxicity against human MDA-MB-231 cells cultured as 3D cells assessed as increase in dead cell count at 125 ug/ml incubated for 12 hrs by tryphan blue based analysis (Rvb=11000x10^3No_unit). It is filed as functional. As to conditions: dose 125 µg/ml.
In data set [5] the test system is MDA-MB-231. Nature of the data set: Cytotoxicity against human MDA-MB-231 cells cultured as 2.5D cells assessed as cell death measured after 12 hrs relative to control. It is filed as functional.
Data set [6] is described as follows: Therapeutic index, ratio of IC50 for cytotoxicity against human dermal fibroblast cultured as 3D cells to IC50 for cytotoxicity against human MDA-MB-231 cultured as 3D cells. It is filed as toxicity, cell-based. The note with it: human dermal fibroblasts versus MDA-MB-231 cells, 3D culture, read-out: TI.
Data set [7] is described as follows: Therapeutic index, ratio of IC50 for cytotoxicity against human dermal fibroblast cultured as 2.5 D cells to IC50 for cytotoxicity against human MDA-MB-231 cultured as 2.5 D cells. It is filed as toxicity, cell-based. As to conditions: read-out: TI.
Data set [8] can be described thus: Therapeutic index, ratio of HC50 for Sheep RBC to IC50 for cytotoxicity against human MDA-MB-231 cultured as 3D cells. It is filed as toxicity, cell-based. The note with it: sheep (RBC) and human (MDA-MB-231), sheep red blood cells versus MDA-MB-231 cells, 3D culture; read-out: TI.
Data set [9] has as its system MDA-MB-231. Nature of the data set: Cytotoxicity against human MDA-MB-231 cultured as 2D cells assessed as inhibition of cell growth measured after 12 hrs by CCK8 assay. As to conditions: MDA-MB-231, 12 h. It is filed as functional, cell-based.
For data set [10], the system named is MDA-MB-231. Briefly: Cytotoxicity against human MDA-MB-231 cells cultured as 2.5D cells assessed as cell death at 125 ug/ml measured after 12 hrs by tryphan blue based analysis relative to control. The class given is functional. As to conditions: dose 125 µg/ml.
Data set [11] can be described thus: Therapeutic index, ratio of HC50 for sheep RBC to IC50 for cytotoxicity against human MDA-MB-231 cultured as 2D cells. The note with it: sheep (RBC) and human (MDA-MB-231), sheep red blood cells versus MDA-MB-231 cells, 2D culture; read-out: TI. The class given is toxicity, cell-based.
Data set [12] deals with MDA-MB-231. Briefly: Cytotoxicity against human MDA-MB-231 cultured as 2.5D cells assessed as inhibition of cell growth measured after 12 hrs by CellTiter-Glo luciferase detection reagent based assay. It is filed as functional. The note with it: MDA-MB-231, 12 h.
Another data set deals with Jurkat. Briefly: Antiproliferative activity against human Jurkat T cells assessed as inhibition of cell growth at 25 ug/ml relative to control. The class given is functional.
Data set [13] can be described thus: Cytotoxicity against human dermal fibroblast cultured as 2D cells assessed as reduction in cell viability measured after 12 hrs by CCK8 assay. The class given is toxicity, cell-based. As to conditions: human dermal fibroblasts (NHDF), 2D culture.
Data set [14] relates to MDA-MB-231. Briefly: Cytotoxicity against human MDA-MB-231 cells cultured as 3D cells assessed as cell death at 125 ug/ml measured after 12 hrs by OCT/imaris based analysis relative to control. It is filed as functional. The note with it: dose 125 µg/ml.
The nature of data set [15]: Hemolytic activity in Sheep RBC assessed as hemolysis at 31 ug/ml by microplate reader analysis relative to control. The class given is toxicity, cell-based, Ovis aries, Erythrocyte. The note with it: sheep red blood cells (erythrocytes), at 31 µg/mL, read-out: Activity.
Data set [16] can be described thus: Selectivity ratio of IC50 for human MDA-MB-231 cultured as 2.5D cells to IC50 for human MDA-MB-231 cultured as 2D cells. The class given is functional.
Data set [17] relates to MDA-MB-231. Briefly: Cytotoxicity against human MDA-MB-231 cells cultured as 3D cells assessed as decrease in live cell count at 125 ug/ml incubated for 12 hrs by tryphan blue based analysis (Rvb=20900x10^3No_unit). It is filed as functional. The note with it: dose 125 µg/ml.
Data set [18] is described as follows: Therapeutic index, ratio of HC50 for Sheep RBC to IC50 for cytotoxicity against human MDA-MB-231 cultured as 2.5D cells. The class given is toxicity, cell-based. The note with it: sheep (RBC) and human (MDA-MB-231), sheep red blood cells versus MDA-MB-231 cells, 2.5D culture; read-out: TI.
Data set [19] can be described thus: Hemolytic activity against Sheep RBC assessed as hemolysis by microplate reader analysis. It is filed as toxicity, cell-based, Ovis aries, Erythrocyte. As to conditions: sheep red blood cells (erythrocytes).
Data set [20] is described as follows: Selectivity ratio of IC50 for human MDA-MB-231 cultured as 3D cells to IC50 for human MDA-MB-231 cultured as 2D cells. It is filed as functional.
In data set [21] the test system is MDA-MB-231. Briefly: Cytotoxicity against human MDA-MB-231 cells cultured as 2.5D cells assessed as cell death at 125 ug/ml measured after 12 hrs by OCT/imaris based analysis relative to control. It is filed as functional. The note with it: dose 125 µg/ml.
The nature of data set [22]: Therapeutic index, ratio of IC50 for cytotoxicity against human dermal fibroblast cultured as 2D cells to IC50 for cytotoxicity against human MDA-MB-231 cultured as 2D cells. It is filed as toxicity, cell-based. The note with it: human dermal fibroblasts versus MDA-MB-231 cells, 2D culture, read-out: TI.
The subject of data set [23] is MDA-MB-231. Nature of the data set: Cytotoxicity against human MDA-MB-231 cells cultured as 2.5D cells assessed as decrease in live cell count at 125 ug/ml incubated for 12 hrs by tryphan blue based analysis (Rvb=22000x10^3No_unit). The class given is functional. The note with it: dose 125 µg/ml.
The test system of data set [24] is MDA-MB-231. Briefly: Cytotoxicity against human MDA-MB-231 cells cultured as 2.5D cells assessed as increase in dead cell count at 125 ug/ml incubated for 12 hrs by tryphan blue based analysis (Rvb=7700x10^3No_unit). It is filed as functional. As to conditions: dose 125 µg/ml.
In data set [25] the test system is MDA-MB-231. Briefly: Cytotoxicity against human MDA-MB-231 cells cultured as 3D cells assessed as increase in dead cell count at 62.5 ug/ml incubated for 12 hrs by tryphan blue based analysis (Rvb=11000x10^3No_unit). The class given is functional. As to conditions: dose 62.5 µg/ml.
The test system of data set [26] is MDA-MB-231. Briefly: Cytotoxicity against human MDA-MB-231 cells cultured as 3D cells assessed as cell death at 62.5 ug/ml measured after 12 hrs by tryphan blue based analysis relative to control. The class given is functional. As to conditions: dose 62.5 µg/ml.
The subject of data set [27] is MDA-MB-231. Nature of the data set: Cytotoxicity against human MDA-MB-231 cells cultured as 3D cells assessed as decrease in live cell count at 62.5 ug/ml incubated for 12 hrs by tryphan blue based analysis (Rvb=20900x10^3No_unit). It is filed as functional. The note with it: dose 62.5 µg/ml.
In data set [28] the test system is MDA-MB-231. Nature of the data set: Cytotoxicity against human MDA-MB-231 cells cultured as 3D cells assessed as cell death at 62.5 ug/ml measured after 12 hrs by OCT/imaris based analysis relative to control. As to conditions: dose 62.5 µg/ml. The class given is functional.
Data set [29] has as its system MDA-MB-231. Nature of the data set: Cytotoxicity against human MDA-MB-231 cells cultured as 2.5D cells assessed as decrease in live cell count at 62.5 ug/ml incubated for 12 hrs by tryphan blue based analysis (Rvb=22000x10^3No_unit). It is filed as functional. As to conditions: dose 62.5 µg/ml.
Data set [30] relates to MDA-MB-231. Nature of the data set: Cytotoxicity against human MDA-MB-231 cells cultured as 2.5D cells assessed as cell death at 62.5 ug/ml measured after 12 hrs by tryphan blue based analysis relative to control. The class given is functional. As to conditions: dose 62.5 µg/ml.
Data set [31] deals with MDA-MB-231. Nature of the data set: Cytotoxicity against human MDA-MB-231 cells cultured as 2.5D cells assessed as increase in dead cell count at 62.5 ug/ml incubated for 12 hrs by tryphan blue based analysis (Rvb=7700x10^3No_unit). It is filed as functional. The note with it: dose 62.5 µg/ml.
Data set [32] has as its system MDA-MB-231. Briefly: Cytotoxicity against human MDA-MB-231 cells cultured as 2.5D cells assessed as cell death at 62.5 ug/ml measured after 12 hrs by OCT/imaris based analysis relative to control. It is filed as functional. The note with it: dose 62.5 µg/ml.
Data set [33] is described as follows: Growth inhibition of human dermal fibroblast cultured as 2D cells by tryphan blue based analysis. It is filed as toxicity, cell-based. The note with it: human dermal fibroblasts (NHDF), 2D culture.

On to `CCOC(=O)CCCCCCC/C=C\CCCCCCC(C)O[C@@H]1O[C@H](COC(C)=O)[C@@H](O)[C@H](O)[C@H]1O[C@@H]1O[C@H](COC(C)=O)[C@@H](O)[C@H](O)[C@H]1O` (stereo not given in full), for which the Activity in the data set on MDA-MB-231 [1] is listed as 70%; with MDA-MB-231 [3] it was 88.2%; in the data set on MDA-MB-231 [4], 22917 10^3No_unit; in the data set on MDA-MB-231 [5] it was 80.2%; with MDA-MB-231 [10] it was 70%; in the data set on MDA-MB-231 [14] it was 70%. Moreover, the Activity with MDA-MB-231 [17] is listed as 3667 10^3No_unit; in the data set on MDA-MB-231 [21] it was 70%; with MDA-MB-231 [23] it was 5500 10^3No_unit; in the data set with MDA-MB-231 [24] it was 16317 10^3No_unit. For the same molecule, the IC50 turned out to be 130 µg/mL (≈ 177 µM) with MDA-MB-231 [2], 27 µg/mL (≈ 36.7 µM) in the data set with MDA-MB-231 [9] and 120 µg/mL (≈ 163 µM) in the data set with MDA-MB-231 [12]. The selectivity ratio in [6] is 0.33; in data set [7] it was 0.36; in data set [8], 0.96; in [11], 4.63; in [18], 1.04; in data set [22], 1.59. Besides, in the data set with Jurkat, the inhibition at 25 µg/mL was 90%. In addition, the IC50 at 12 h in data set [13] came to 43 µg/mL (≈ 58.5 µM). In addition, the hemolysis at 31 ug/ml in data set [15] is greater than 10%. In addition, the entries for the “Ratio IC50” value in [16] and in data set [20] were 4.5 and 5, respectively. Moreover, the HC50 in data set [19] stood at 125 µg/mL.
For `CC(=O)OC[C@H]1O[C@H]2OC(C)CCCCCC/C=C\CCCCCCCC(=O)O[C@H]3[C@H](O)[C@@H](O)[C@H](O[C@@H]2[C@@H](O)[C@@H]1O)O[C@@H]3COC(C)=O` (stereo not given in full), the IC50 in the data set on MDA-MB-231 [2] amounted to 33 µg/mL (≈ 47.9 µM); in the data set with MDA-MB-231 [9] it was 14 µg/mL (≈ 20.3 µM); with MDA-MB-231 [12], 38 µg/mL (≈ 55.2 µM). Also, the Activity in the data set with MDA-MB-231 [3] is given as 89.3%; in the data set with MDA-MB-231 [5] it was 88.4%; in the data set with MDA-MB-231 [25], 17783 10^3No_unit; with MDA-MB-231 [26], 70%; in the data set on MDA-MB-231 [27], 3300 10^3No_unit; with MDA-MB-231 [28], 70%. The Activity in the data set with MDA-MB-231 [29] is given as 3117 10^3No_unit; with MDA-MB-231 [30], 70%; in the data set with MDA-MB-231 [31] it was 13933 10^3No_unit; in the data set on MDA-MB-231 [32] it was 70%. The selectivity ratio in data set [6] is 0.94; in data set [7], 0.82; in [8], 3.79; in data set [11], 8.93; in data set [18], 3.29; in data set [22], 2.21. Also, the IC50 at 12 h in data set [13] is 31 µg/mL (≈ 45 µM). Moreover, the hemolysis at 31 ug/ml in data set [15] was greater than 10%. Further, the “Ratio IC50” value in [16] is 3; in data set [20], 2.5. Besides, the HC50 in data set [19] is 125 µg/mL.
Molecule `COc1cccc2c1C(=O)c1c(O)c3c(c(O)c1C2=O)C[C@@](O)(C(=O)CO)C[C@@H]3O[C@H]1C[C@H](N)[C@H](O)[C@H](C)O1` [DOXORUBICIN] returned a GI50 in data set [33] of 30 µg/mL (≈ 55.2 µM).
